The record followed here is ChEMBL document CHEMBL5375942, “Discovery of a Potent Chloroacetamide GPX4 Inhibitor with Bioavailability to Enable Target Engagement in Mice, a Potential Tool Compound for Inducing Ferroptosis In Vivo” (J Med Chem, 2023).

The nature of data set [1]: Metabolic stability in mouse liver microsomes assessed as unbound intrinsic clearance. Type of data set: ADME, Microsome. On the technique in general: Liver microsomes are a subcellular fraction often used to study metabolism.
A short description of data set [2]: Stability in human plasma assessed as half life. The class given is ADME, cell-free.
A short description of data set [3]: Metabolic stability in human liver microsomes assessed as unbound intrinsic clearance. The class given is ADME, Microsome.
A short description of data set [4]: Stability in mouse plasma assessed as half life. The class given is ADME, cell-free.
Data set [5] can be described thus: Plasma clearance in iv dosed mouse. Type of data set: ADME, organism-based.
In data set [6] the test system is NCI-H1703. As to the kind of experiment: Induction of ferroptosis in human NCI-H1703 cells assessed as cell viability incubated for 72 hrs in presence of ferrostatin-1 by CellTiter-Glo luminescent cell viability assay. The conditions noted are these: NCI-H1703, 72 h. Type of data set: functional, cell-based. (In general: ATP-based viability assays read luminescence as a measure of living cells.)

In data set [7] the test system is NCI-H1703. As to the kind of experiment: Induction of ferroptosis in human NCI-H1703 cells assessed as cell viability incubated for 72 hrs by CellTiter-Glo luminescent cell viability assay. Type of data set: functional, cell-based. The settings on record: NCI-H1703, 72 h.
Data set [8] addresses Phospholipid hydroperoxide glutathione peroxidase GPX4 (Mus musculus) (UniProt O70325). As to the kind of experiment: Target engagement at GPX4 in mouse 4T1 cells assessed as mass change between covalently bound protein and unbound protein at 0.01 to 1 ug/ml measured after 2 hrs by Western blot analysis. Type of data set: cell-based. The conditions noted are these: dose 0.01-1 µg/ml. In general terms: Immunoblotting shows a protein as a band on a membrane.

Data set [9] can be described thus: Unbound fraction in human plasma. The class given is ADME, cell-free.
Data set [10] is described as follows: Aqueous solubility of the compound at pH 7. Type of data set: physicochemical.
Data set [11] in a line: Unbound fraction in mouse plasma. The class given is ADME, cell-free.
Data set [12] can be described thus: AUC in CB17 SCID-Beige mouse subcutaneously inoculated with WSUDLCL2 cells at 30 mg/kg, ip. The conditions noted are these: in vivo. More on the design: dose 30 mg/kg, route ip. Type of data set: ADME, organism-based.
The nature of data set [13]: Aqueous solubility of the compound at pH 1. Type of data set: physicochemical.
Data set [14] can be described thus: Cmax in CB17 SCID-Beige mouse subcutaneously inoculated with WSUDLCL2 cells at 30 mg/kg, ip. Type of data set: ADME, organism-based. More on the design: dose 30 mg/kg, route ip. The conditions noted are these: in vivo.
Data set [15] is described as follows: Half life in CB17 SCID-Beige mouse subcutaneously inoculated with WSUDLCL2 cells at 30 mg/kg, ip. Type of data set: ADME, organism-based. The settings on record: in vivo.

Activity calls are given as the source filed them. The rule behind the calls is not given here.

Sequence of Phospholipid hydroperoxide glutathione peroxidase GPX4 (Mus musculus) (O70325 whole entry): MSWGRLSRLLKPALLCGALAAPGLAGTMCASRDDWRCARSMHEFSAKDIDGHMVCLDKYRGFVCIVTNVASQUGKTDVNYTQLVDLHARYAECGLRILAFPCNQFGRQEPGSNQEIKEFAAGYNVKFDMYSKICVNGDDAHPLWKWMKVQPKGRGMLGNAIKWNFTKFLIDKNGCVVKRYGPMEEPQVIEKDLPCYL

In general, half-life refers to how long it takes for the measured level to halve. What is called clearance is the volume of plasma or blood freed of the substance per unit of time. A lower clearance goes with inefficient removal. For `COC(=O)[C@H]1Cc2c([nH]c3ccccc23)[C@H](c2ccccc2)N1C(C)=O`, the figures for the CL free in [1] and in [3] were 2682 mL/min/kg and 183 mL/min/kg, respectively. Further, the results for the half-life in data set [2] and in data set [4] were greater than 16 h and 13.7 h, respectively. The clearance in [5] is 50 mL/min/kg.

Broadly, the EC50 is the midpoint of the concentration-response curve. Turning to `Cc1noc([C@H]2Cc3c([nH]c4ccccc34)[C@H](c3ccc(S(C)(=O)=O)cc3)N2C(=O)CCl)n1`, the values for the CL free in [1] and in [3] were 243 mL/min/kg and 31.7 mL/min/kg, respectively. For the same compound, the half-life in [2] came out at 2.92 h; in data set [4], 1.85 h. Also, the EC50 in [6] came to 2340 nM; in [7] it was 37 nM.

In the case of `COC(=O)[C@H]1Cc2c([nH]c3ccccc23)[C@H](c2ccc(OC(F)(F)F)cc2)N1C(=O)CCl`, the EC50 in [6] was determined as 4270 nM; in [7] it was 75 nM.

For `COC(=O)c1ccc([C@@H]2c3[nH]c4ccccc4c3C[C@H](C(=O)OC)N2C(=O)CCl)cc1`, in data set [8], the result was Active.

Turning to `C=CC(=O)N1[C@@H](c2ccccc2)c2[nH]c3ccccc3c2C[C@@H]1C(=O)OC`, the CL free in data set [1] turned out to be 905 mL/min/kg; in data set [3] it was 76.7 mL/min/kg. Also, the half-life in data set [2] turned out to be 0.933 h; in data set [4], 1.05 h. For the same compound, the EC50 in data set [7] is greater than 10000 nM.

Consider `COC(=O)[C@H]1Cc2c([nH]c3ccccc23)[C@H](c2cccc(S(C)(=O)=O)c2)N1C(=O)CCl`, for which the CL free came to 563 mL/min/kg in data set [1] and 45 mL/min/kg in [3]. The half-life was found to be 4.23 h in data set [2] and 0.167 h in [4]. The EC50 in [6] is 5660 nM; in data set [7], 570 nM.

For orientation: fraction unbound means the share of the substance not bound to proteins or other matrix. Lower therefore signals little free substance. In the case of `Cc1noc([C@H]2Cc3c([nH]c4ccccc34)[C@H](c3ccccc3)N2C(=O)CCl)n1`, the CL free in data set [1] worked out at 910 mL/min/kg; in data set [3], 118 mL/min/kg. Also, the half-life was 6.73 h in data set [2] and 2.68 h in data set [4]. In data set [9], the fraction unbound came to 0.013. Also, the values for the EC50 in data set [6] and in [7] were greater than 10000 nM and 44 nM, respectively.

Regarding `COC(=O)[C@H]1Cc2c([nH]c3ccccc23)[C@H](c2ccc(F)cc2F)N1C(=O)CCl`, the figures for the EC50 in [6] and in [7] were 3950 nM and 107 nM, respectively.

Consider `COC(=O)[C@H]1Cc2c([nH]c3ccccc23)[C@H](c2ccc(C(F)(F)F)nc2)N1C(=O)CCl`, for which the figures for the CL free in data set [1] and in [3] were 1060 mL/min/kg and 147 mL/min/kg, respectively. The half-life in data set [2] was 2.63 h; in [4], 2.12 h. Further, the EC50 was greater than 10000 nM in data set [6] and 42 nM in data set [7].

In the case of `COC(=O)[C@H]1Cc2c([nH]c3ccccc23)[C@H](c2ccc(OC)cc2)N1C(=O)CCl`, the CL free in data set [1] came to 2050 mL/min/kg; in data set [3], 375 mL/min/kg. Further, the half-life in data set [2] is 13 h; in data set [4], 4.02 h. Further, in data set [9], the fraction unbound worked out at 0.068. Besides, the EC50 is greater than 10000 nM in data set [6] and 127 nM in data set [7].

Usually solubility stands for the dissolved amount per volume that the medium holds. With `COC(=O)[C@H]1Cc2c([nH]c3ccccc23)[C@H](c2ccc(S(C)(=O)=O)nc2)N1C(=O)CCl`, the CL free in data set [1] was found to be 235 mL/min/kg; in [3] it was 28.3 mL/min/kg. In addition, the half-life is 3.33 h in data set [2] and 2.77 h in [4]. This compound also gave a solubility in [10] greater than 200 µM. Also, the EC50 in data set [6] amounted to 2450 nM; in data set [7] it was 118 nM.

Turning to `COC(=O)[C@H]1Cc2c([nH]c3ccccc23)[C@H](c2ccc(S(C)(=O)=O)cn2)N1C(=O)CCl`, the CL free was 348 mL/min/kg in data set [1] and 35 mL/min/kg in data set [3]. Besides, the figures for the half-life in data set [2] and in data set [4] were 4.03 h and 1.33 h, respectively. In addition, the EC50 was greater than 10000 nM in data set [6] and 973 nM in [7].

Consider `COC(=O)[C@H]1Cc2c([nH]c3ccccc23)[C@H](c2ccc(F)cc2Cl)N1C(=O)CCl`, for which the EC50 in data set [6] is greater than 10000 nM; in data set [7], 28 nM.

As to `COC(=O)[C@H]1Cc2c([nH]c3ccccc23)[C@H](c2ccccc2)N1C(=O)CCl`, the results for the EC50 in data set [6] and in data set [7] were greater than 10000 nM and 116 nM, respectively.

In the case of `C#CC(=O)N1[C@@H](c2ccccc2)c2[nH]c3ccccc3c2C[C@@H]1C(=O)OC`, the half-life in [2] worked out at 0.4 h; in data set [4] it was 0.317 h. Also, in data set [7], the EC50 turned out to be 157 nM.

As for `CC(C)OC(=O)[C@H]1Cc2c([nH]c3ccccc23)[C@H](c2ccccc2)N1C(=O)CCl`, the CL free came to 5810 mL/min/kg in data set [1] and 505 mL/min/kg in [3]. Besides, the half-life in data set [2] turned out to be 6.18 h; in data set [4], 2.77 h. The same compound came in with a fraction unbound in data set [9] of 0.011. The EC50 in data set [6] was greater than 10000 nM; in data set [7], 265 nM.

Regarding `COC(=O)[C@H]1Cc2c([nH]c3ccccc23)[C@H](Cc2ccccc2)N1C(=O)CCl`, the figures for the CL free in [1] and in [3] were 4725 mL/min/kg and 477 mL/min/kg, respectively. Moreover, the half-life in [2] came out at 6.1 h; in data set [4], 2.7 h. The compound also returned a fraction unbound in data set [9] of 0.026. In addition, the EC50 in data set [6] was greater than 10000 nM; in data set [7], 984 nM.

Consider `O=C([C@H]1Cc2c([nH]c3ccccc23)[C@H](c2ccccc2)N1C(=O)CCl)N1CCCC1`, for which the CL free in data set [1] is 1640 mL/min/kg; in data set [3], 292 mL/min/kg. Further, the half-life was found to be 7.43 h in data set [2] and 3.6 h in [4]. The same compound registered a fraction unbound in data set [9] of 0.061. The EC50 in data set [6] was greater than 10000 nM; in data set [7], 1760 nM.

For the compound `COC(=O)[C@H]1Cc2c([nH]c3ccccc23)C(c2ccc(F)cc2C(F)(F)F)N1C(=O)CCl` (single isomer, unassigned), the EC50 in data set [6] is greater than 10000 nM; in data set [7], 64 nM.

Turning to `COC(=O)c1ccc([C@H]2c3[nH]c4ccccc4c3CCN2C(=O)CCl)cc1`, the half-life in [2] was 1 h; in data set [4] it was 0.2 h. Further, the EC50 in data set [7] came out at 1390 nM.

As for `COC(=O)[C@H]1Cc2c([nH]c3ccccc23)[C@H](C2CCOCC2)N1C(=O)CCl`, the values for the CL free in data set [1] and in data set [3] were 353 mL/min/kg and 33 mL/min/kg, respectively. For the same compound, the fraction unbound came out at 0.31 in data set [9] and 0.24 in [11]. Further, the EC50 is greater than 10000 nM in data set [6] and 3130 nM in data set [7].

As usually defined, the Cmax is the maximum level reached in the sampled fluid or tissue. As for `COC(=O)[C@H]1Cc2c([nH]c3ccccc23)[C@H](c2ccc(C(F)(F)F)cc2)N1C(=O)CCl`, the CL free in data set [1] was 2962 mL/min/kg; in data set [3], 1420 mL/min/kg. Besides, the AUC in data set [12] turned out to be 1.53 µg/h/mL. Also, the half-life is greater than 16 h in [2], 4.38 h in [4] and 1.4 h in data set [15]. The solubility in data set [10] and in [13] was less than 0.8 µM throughout. In data set [14], the highest level (Cmax) was 410 ng/mL. The figures for the EC50 in data set [6] and in data set [7] were 3250 nM and 37 nM, respectively.

As to `CN(C)C(=O)[C@H]1Cc2c([nH]c3ccccc23)[C@H](c2ccccc2)N1C(=O)CCl`, the EC50 in data set [6] stood at 3740 nM; in data set [7], 737 nM.
